Test results reported in US8273761B2, “Tricyclic compound and medical use thereof” (Takeda Pharmaceutical Company Limited, priority 2006, dated 2012).

Biological target: T1, human melatonin 2 receptors (human MT2 receptors) (Homo sapiens, UniProt P49286)
T1 construct: expressed in transfected cells
T1 sequence (P49286 1-362): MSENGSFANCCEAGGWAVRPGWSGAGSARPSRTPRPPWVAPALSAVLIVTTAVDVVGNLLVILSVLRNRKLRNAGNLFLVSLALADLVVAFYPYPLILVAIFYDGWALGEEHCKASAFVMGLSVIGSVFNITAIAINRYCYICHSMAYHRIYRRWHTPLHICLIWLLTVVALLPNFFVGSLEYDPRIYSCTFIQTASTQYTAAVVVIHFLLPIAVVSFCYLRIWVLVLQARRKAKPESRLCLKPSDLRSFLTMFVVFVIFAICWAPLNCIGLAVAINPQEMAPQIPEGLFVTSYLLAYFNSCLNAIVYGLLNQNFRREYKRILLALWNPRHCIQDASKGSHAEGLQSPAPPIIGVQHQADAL
Experiment: Melatonin receptor binding inhibitory test (MT2)
Settings: 2-[125I] Iodomelatonin 1 nM solution, membrane fraction of CHO-hMT2 cells, 25° C. for 2.5 hr
Procedure: Melatonin Receptor Binding Inhibitory Test (2) Preparation of CHO-hMT2 Cells Expressing Human Melatonin 2 Receptors A cDNA fragment (SEQ ID NO: 2) encoding full-length of human melatonin 2 receptors (human MT2 receptors) was incorporated into expression vector pCMV-Script (Stratagene, #212220) to give the plasmid that was pCMV-human MT2 receptors expression vector for animal cell expression. CHO-K1 cells (ATCC, #CCL-61) were plated at the concentration of 1.5×10^5 cells/cm^2 in a 6 well plate (ASAHI TECHNO GLASS), and cultured under the conditions of 37° C., 5% CO2 for 24 hr. For gene transfection, solution obtained by blending pCMV-human MT2 receptors expression vector (1.9 μg), Lipofectamine Transfection Reagent (Invitrogen, #18324-012) (11.3 μL) and Minimum Essential Medium Eagle (MEM) medium (Sigma, M8042) (93.8 μL), and reacting at room temperature for 20 min was added to the cells per one well. The transfected cells were cultured in MEM medium containing 10% FBS (Life Technology) and 300 μg/mL Geneticin (GIBCO, #10131), and the cell line that stably expressed the plasmid gene was selected. By a receptor binding assay using 2-[^125I] […] (3) Preparation of Cellular Membrane Fraction of CHO Cell (CHO-hMelR7 and CHO-hMT2) Stably Expressing Human MT1 and MT2 Receptors CHO-hMelR7 and CHO-hMT2 cells were plated using Cellfactory (Nunc, #170009) under the conditions of 1×10^8 cells/2000 mL/flask. The cells were grown to confluent, and recovered by the following method. As the medium for CHO-hMelR7 and CHO-hMT2, MEM α containing 10% FBS and penicillin/streptomycin was used. 300 ng/mL of geneticin was added to the medium for CHO-hMT2. The medium was discarded, cells were washed twice with 200 mL of EDTA/PBS(-), 200 mL of EDTA/PBS(-) was further added, and the cells were stood still at room temperature for 20 min until they were released. The cells were recovered in four 50 mL tubes (Becton Dickinson, #352070), and centrifuged at 1,500 rpm for 10 min at 4° C. using a low speed cooling centrifuge (Hitachi, CF7D2). The supernatant was discarded, the pellets in the four tubes were suspended in 10 mL of PBS(-), and combined in one tube (Becton Dickinson, #352070). The mixture was further centrifuged at 1,500 rpm for 10 min at 4° C., and the obtained pellets were suspended in 20 mL of ice-cooled homogenizing buffer [10 mM NaHCO3, 5 mM EDTA, Protease inhibitor Complete (Roche), pH 7.4]. The cell suspension was homogenized 3 times using a polytron homogenizer at 20,000 rpm for 30 sec. The obtained homogenate was centrifuged (2,000 rpm, 10 min, 4° C.) using a low speed cooling centrifuge. The supernatant was recovered in an ultracentrifugation tube and ultracentrifuged (40,000 rpm, 60 min, 4° C.) using an ultracentrifuge (Beckman, […]). To the obtained pellets was added a suspending buffer [50 mM Tris-HCl, 1 mM EDTA, Protease inhibitor Complete (Roche), pH 7.4], and the pellets were suspended by pipetting. The protein concentration of this suspension was measured, diluted to 2 mg/mL to give cellular membrane fractions of CHO-hMelR7 and CHO-hMT2 cells. […] Protein was quantified using BCA protein assay kit (Pierce) with BSA as the standard. (4) Preparation of Membrane Fraction Suspension Immediately before use, the membrane fractions of CHO-hMelR7 and CHO-hMT2 cells of the above-mentioned (3) were diluted 20-fold with assay buffer (50 mM Tris-HCl, pH 7.7). (5) Preparation of 2-[^125I] […] (6) Binding Reaction The assay buffer (80 μL) of the above-mentioned (4) was added to each well of a 96-well plate (type 3363, Corning). […] (7) Measurement Using a cell harvester (PerkinElmer), the binding reaction mixture in each well of the 96-well plate was transferred to a treated (immersed in 50 mM Tris, pH 7.7 in advance) filter plate (UniFilter GF/C, PerkinElmer) and filtered.

SMILES	IC50 [nM]
CC(=O)NCCc1c(-c2ccc(F)cc2)nn2ccc3c(c12)CCO3 [Example 15, N-{2-[2-(4-fluorophenyl)-8,9-dihydrofuro[3,2-c]pyrazolo[1,5-a]pyridin-1-yl]ethyl}acetamide]	≤ 100
CCC(=O)NCCC1=CCc2cnc3c(c21)CCO3 [Example 29, N-[2-(1,6-dihydro-2H-cyclopenta[d]furo[2,3-b]pyridin-8-yl)ethyl]propanamide]	≤ 100
CCC(=O)NCC(C)c1c(CC)nn2ccc3c(c12)CCO3 (stereo not drawn) [Example 38, N-[2-(2-ethyl-8,9-dihydrofuro[3,2-c]pyrazolo[1,5-a]pyridin-1-yl)propyl]propanamide]	≤ 100
CCc1nn2ccc3c(c2c1C(C)CNC(C)=O)CCO3 (stereo not drawn) [Example 37, N-[2-(2-ethyl-8,9-dihydrofuro[3,2-c]pyrazolo[1,5-a]pyridin-1-yl)propyl]acetamide]	≤ 100
CCC(=O)NCCc1c(-c2ccc(F)cc2)nn2ccc3c(c12)CCO3 [Example 16, N-{2-[2-(4-fluorophenyl)-8,9-dihydrofuro[3,2-c]pyrazolo[1,5-a]pyridin-1-yl]ethyl}propanamide]	≤ 100
CCC(=O)NCCc1c(-c2ccccc2)nn2ccc3c(c12)CCO3 [Example 8, N-[2-(2-phenyl-8,9-dihydrofuro[3,2-c]pyrazolo[1,5-a]pyridin-1-yl)ethyl]propanamide]	≤ 100
CC(=O)NCCc1c(-c2ccccc2)cn2ccc3c(c12)CCO3 [Example 17, N-[2-(8-phenyl-1,2-dihydrofuro[2,3-g]indolizin-9-yl)ethyl]acetamide]	≤ 100
CC(=O)NCCC1=C(C(C)C)Cc2cnc3c(c21)CCO3 [Example 30, N-[2-(7-isopropyl-1,6-dihydro-2H-cyclopenta[d]furo[2,3-b]pyridin-8-yl)ethyl]acetamide]	≤ 100
CCC(=O)NCCC1CCc2cnc3c(c21)CCO3 (single isomer, unassigned) [Example 23, optically active N-[2-(1,6,7,8-tetrahydro-2H-cyclopenta[d]furo[2,3-b]pyridin-8-yl)ethyl]propanamide]	≤ 100
CCc1nn2ccc3oc(C)cc3c2c1CCNC(C)=O [Example 39, N-[2-(2-ethyl-8-methylfuro[3,2-c]pyrazolo[1,5-a]pyridin-1-yl)ethyl]acetamide]	≤ 100

Results, then the compound that gave them:

IC50 [nM]	SMILES
≤ 100	CCC(=O)NCCc1cnn2ccc3c(c12)CCO3 [Example 4, N-[2-(8,9-dihydrofuro[3,2-c]pyrazolo[1,5-a]pyridin-1-yl)ethyl]propanamide]
≤ 100	CCC(=O)NCCC1CCc2cnc3c(c21)CCO3 (stereo not drawn) [Example 22, N-[2-(1,6,7,8-tetrahydro-2H-cyclopenta[d]furo[2,3-b]pyridin-8-yl)ethyl]propanamide]
≤ 100	CCCC(=O)NCCC1CCc2cnc3c(c21)CCO3 (stereo not drawn) [Example 25, N-[2-(1,6,7,8-tetrahydro-2H-cyclopenta[d]furo[2,3-b]pyridin-8-yl)ethyl]butanamide]
≤ 100	CCC(=O)NCCC1=C(C(C)C)Cc2cnc3c(c21)CCO3 [Example 31, N-[2-(7-isopropyl-1,6-dihydro-2H-cyclopenta[d]furo[2,3-b]pyridin-8-yl)ethyl]propanamide]
≤ 100	CCC(=O)NCCc1c(-c2ccccc2)nn2ccc3occc3c12 [Example 2, N-[2-(2-phenylfuro[3,2-c]pyrazolo[1,5-a]pyridin-1-yl)ethyl]propanamide]
≤ 100	CCCC(=O)NCCc1cnn2ccc3c(c12)CCO3 [Example 5, N-[2-(8,9-dihydrofuro[3,2-c]pyrazolo[1,5-a]pyridin-1-yl)ethyl]butanamide]
≤ 100	CC(=O)NCCC1CCc2cnc3c(c21)CCO3 (single isomer, unassigned) [Example 20, optically active N-[2-(1,6,7,8-tetrahydro-2H-cyclopenta[d]furo[2,3-b]pyridin-8-yl)ethyl]acetamide]
≤ 100	CC(=O)NCCc1cnn2ccc3c(c12)CCO3 [Example 3, N-[2-(8,9-dihydrofuro[3,2-c]pyrazolo[1,5-a]pyridin-1-yl)ethyl]acetamide]
